Data: patent publication US20070066608A1, “Novel indole derivatives with an improved antipsychotic activity” (priority 2003, published 2007)

How the values were obtained:
[1] = biological target: T1, Human Dopamine D4 receptor (Homo sapiens, UniProt P21917); test: Radioligand binding experiment for dopamine D4 receptor (hD4), [125I]Spiperone; conditions: membranes of D4 receptor-transfected Sf9 cells, read-out: pIC50 D4 (converted)
T1 construct: expressed in transfected cells; host or cells: Sf9 cells
T1 sequence (P21917 1-419): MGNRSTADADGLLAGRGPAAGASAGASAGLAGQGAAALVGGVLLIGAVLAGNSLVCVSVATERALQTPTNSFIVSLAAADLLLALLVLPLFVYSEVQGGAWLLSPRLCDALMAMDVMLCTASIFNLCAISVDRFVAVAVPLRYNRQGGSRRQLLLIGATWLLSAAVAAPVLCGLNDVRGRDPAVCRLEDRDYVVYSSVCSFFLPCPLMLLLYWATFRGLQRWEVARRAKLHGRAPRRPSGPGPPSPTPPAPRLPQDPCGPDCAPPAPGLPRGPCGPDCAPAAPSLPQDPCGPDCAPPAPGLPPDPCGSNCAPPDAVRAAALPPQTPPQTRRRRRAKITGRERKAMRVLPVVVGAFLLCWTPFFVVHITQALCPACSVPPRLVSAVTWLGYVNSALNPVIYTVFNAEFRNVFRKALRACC
Procedure: The interaction of the compounds of Formula (I) with dopamine-receptors, h5HT-transporter and h5HT1A receptor was assessed in in vitro radioligand binding experiments. In general, a low concentration of a radioligand with a high binding affinity for a particular receptor or transporter is incubated with a sample of a tissue preparation enriched in a particular receptor or transporter or with a preparation of cells expressing cloned human receptors in a buffered medium. During the incubation, the radioligand binds to the receptor or transporter. When equilibrium of binding is reached, the receptor bound radioactivity is separated from the non-bound radioactivity, and the receptor- or transporter-bound activity is counted The interaction of the test compounds with the receptor is assessed in competition binding experiments. Various concentrations of the test compound are added to the incubation mixture containing the receptor- or transporter preparation and the radioligand. […]
Human Dopamine D4 receptor-transfected Sf9 cells were collected by scraping into ice-cold Tris-HCl buffer (50 mM, pH 7.4). […] Filters were allowed to dry before adding scintillation fluid and counting in a Topcount scintillation counter. % Specific bound and competition binding curves were calculated using S-Plus software (Insightful).

Human 5HT1A receptor = biological target: T2, Human 5HT1A receptor (Homo sapiens, UniProt P08908); test: Binding experiment for 5-HT1A receptor, [3H]8OHDPAT; conditions: membranes of 5HT1A receptor-transfected L929 cells, read-out: pIC50 5HT1A (converted)
T2 construct: expressed in transfected cells; host or cells: L929 cells (stably transfected)
T2 sequence (P08908 1-422): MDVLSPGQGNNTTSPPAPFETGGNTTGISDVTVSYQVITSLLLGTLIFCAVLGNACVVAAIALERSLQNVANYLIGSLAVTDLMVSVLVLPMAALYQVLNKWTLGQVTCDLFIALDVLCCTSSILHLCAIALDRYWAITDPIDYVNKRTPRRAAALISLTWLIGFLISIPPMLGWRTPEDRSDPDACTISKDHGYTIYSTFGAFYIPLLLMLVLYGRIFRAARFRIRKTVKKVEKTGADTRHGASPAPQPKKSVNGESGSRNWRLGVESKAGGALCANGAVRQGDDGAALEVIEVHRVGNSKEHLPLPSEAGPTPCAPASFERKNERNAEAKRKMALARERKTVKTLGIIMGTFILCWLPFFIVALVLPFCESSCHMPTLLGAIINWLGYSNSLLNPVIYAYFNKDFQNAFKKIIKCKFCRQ
Procedure: The interaction of the compounds of Formula (I) with dopamine-receptors, h5HT-transporter and h5HT1A receptor was assessed in in vitro radioligand binding experiments. In general, a low concentration of a radioligand with a high binding affinity for a particular receptor or transporter is incubated with a sample of a tissue preparation enriched in a particular receptor or transporter or with a preparation of cells expressing cloned human receptors in a buffered medium. During the incubation, the radioligand binds to the receptor or transporter. When equilibrium of binding is reached, the receptor bound radioactivity is separated from the non-bound radioactivity, and the receptor- or transporter-bound activity is counted The interaction of the test compounds with the receptor is assessed in competition binding experiments. Various concentrations of the test compound are added to the incubation mixture containing the receptor- or transporter preparation and the radioligand. The test compound in proportion to its binding affinity and its concentration inhibits binding of the radioligand.
Human 5HT1A receptor-transfected L929 cells were collected by scraping into ice-cold Tris-HCl buffer (50 mM, pH 7.4). The suspension was centrifuged (23 500×g, 10 min, 4° C.) and pellets stored at −70° C. until required. They were then thawed and briefly homogenised using an Ultra-Turrax T25 homogeniser prior to dilution to an appropriate protein concentration optimised for specific and non-specific binding. [^3H]8OHDPAT (NEN, specific activity 127 Ci/mmol) was diluted in Tris-HCl assay buffer containing CaCl2 (50 mM and 4 mM, respectively; pH 7.7) at a concentration of 5 nmol/L. Prepared radioligand (50 μl) was then incubated (30 min, 37° C.) with membrane preparations from L929 cells stably-transfected with the h5HT1A gene construct (400 μl) and with 50 μl of either the 10% DMSO control, spiroxatrine (10^−6 mol/L final concentration), or compound of interest. Membrane-bound activity was detected by filtration through a Packard Filtermate harvester onto Unifaltemplates, washing with ice-cold Tris-HCI buffer (3×4 ml), followed by drying. Scintillation fluid was added and membranes were counted in a Topcount scintillation counter. % Specific bound and competition binding curves were calculated using S-Plus software (Insightful).

Question: With `Fc1ccc2[nH]cc(C3=CCN(CC4Oc5cccnc5O4)CC3)c2c1` (centres unmarked) [Compound 7] as the compound, how does the IC50 [1] read?
Answer: The IC50 was 501 nM.

Question: What about the IC50 (Human 5HT1A receptor) of the same compound?
Answer: The IC50 was 398 nM.
